# From patent US6979686B1, “Substituted pyrazoles as p38 kinase inhibitors” (Pharmacia Corporation, priority 2001, dated 2005)
# Like-named read-outs stand apart in the source and are kept apart here.
# What was measured:
# [1] = system: TNF-α, U937 human histiocytic lymphoma cell line; experiment: LPS stimulation of TNF production by U937 cells; type: cell-based; settings: for IC50: human U937 cells stimulated with LPS, read-out: U937 Cell IC50; for inhibition at 1 µM: U-937, @ 1.0 uM; for inhibition at 1 µM / inhibition at 10 µM / U937 Cell % inhib @ conc.: LPS-stimulated U937 cells; for inhibition at 1 µM / inhibition at 10 µM: read-out: U937 Cell % inhib @ conc.; for inhibition at 10 µM: U-937, @ 10.0 uM; for U937 Cell % inhib @ conc.: @ 10.0 uM
# Outline: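 U937 cells differentiated 24 h with 20 ng/ml PMA, rested 24-48 h, used at 2 million cells/ml. Compounds in 0.1% DMSO final; LPS (E. coli, 100 ng/ml final) stimulation for 4 h at 37° C. Released TNF-α measured by ELISA; IC50 (μM).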
# human p38 kinase alpha = target: T1, human p38 kinase alpha (Homo sapiens, UniProt Q16539); experiment: p38 kinase in vitro assay, phosphorylation of biotinylated PHAS-I with 32P-ATP; type: biochemical; settings: for IC50: in vitro P38-alpha kinase, read-out: P38 alpha kinase IC50; for P38 alpha kinase % inhib @ conc.: @ 10.0 uM
# T1 construct: GST (N, cleaved yes); made in house; host or cells: E. coli DH10B
# T1 sequence (Q16539 whole entry): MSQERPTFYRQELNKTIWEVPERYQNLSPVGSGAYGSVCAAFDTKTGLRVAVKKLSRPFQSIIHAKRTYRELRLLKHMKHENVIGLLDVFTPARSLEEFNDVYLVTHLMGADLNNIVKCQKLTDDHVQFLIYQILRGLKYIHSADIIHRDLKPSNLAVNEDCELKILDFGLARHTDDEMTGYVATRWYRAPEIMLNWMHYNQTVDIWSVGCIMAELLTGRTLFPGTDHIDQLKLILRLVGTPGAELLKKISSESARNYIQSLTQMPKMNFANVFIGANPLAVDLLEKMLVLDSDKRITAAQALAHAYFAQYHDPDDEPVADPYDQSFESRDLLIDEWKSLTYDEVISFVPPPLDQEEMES
SMILES,IC50 (human p38 kinase alpha) [µM],"inhibition at 1 µM ([1]; Homo sapiens, TNF production) [%]",U937 Cell % inhib @ conc. ([1]; TNF production) [% @],P38 alpha kinase % inhib @ conc. (human p38 kinase alpha) [% @],also measured
O=S(=O)(c1cccc(Br)c1)N1CCC(c2[nH]nc(-c3ccc(F)cc3)c2-c2ccncc2)CC1 [Example B-1466],1.69,–,–,–,"IC50 ([1]; Homo sapiens, U-937, TNF production): > 1 µM"
Cc1cccc(S(=O)(=O)N2CCC(c3[nH]nc(-c4ccc(F)cc4)c3-c3ccncc3)CC2)c1 [Example B-1467],1.22,1,–,–,–
O=S(=O)(c1cccc(C(F)(F)F)c1)N1CCC(c2[nH]nc(-c3ccc(F)cc3)c2-c2ccncc2)CC1 [Example B-1468],1.61,10,–,–,–
N#Cc1cccc(S(=O)(=O)N2CCC(c3[nH]nc(-c4ccc(F)cc4)c3-c3ccncc3)CC2)c1 [Example B-1469],0.37,14,–,–,–
O=S(=O)(c1ccc(F)cc1)N1CCC(c2[nH]nc(-c3ccc(F)cc3)c2-c2ccncc2)CC1 [Example B-1470],0.6,28,–,–,–
O=S(=O)(c1ccc(Cl)cc1)N1CCC(c2[nH]nc(-c3ccc(F)cc3)c2-c2ccncc2)CC1 [Example B-1471],0.85,25,–,–,–
Cc1ccc(S(=O)(=O)N2CCC(c3[nH]nc(-c4ccc(F)cc4)c3-c3ccncc3)CC2)cc1 [Example B-1473],1.24,14,–,–,–
O=S(=O)(c1ccc(C(F)(F)F)cc1)N1CCC(c2[nH]nc(-c3ccc(F)cc3)c2-c2ccncc2)CC1 [Example B-1474],1.23,31,–,–,–
N#Cc1ccc(S(=O)(=O)N2CCC(c3[nH]nc(-c4ccc(F)cc4)c3-c3ccncc3)CC2)cc1 [Example B-1475],2.1,24,–,–,–
CCCNC(=O)Cn1nc(-c2ccc(F)cc2)c(-c2ccncc2)c1C [Example B-2270],0.72,–,–,–,"inhibition at 10 µM ([1]; Homo sapiens, TNF production): 31%"
Cc1c(-c2ccncc2)c(-c2ccc(F)cc2)nn1CC(=O)NCCc1cccs1 [Example B-2279],0.32,–,36.0,–,–
Cc1c(-c2ccncc2)c(-c2ccc(F)cc2)nn1CC(=O)NCCCN1CCN(C)CC1 [Example B-2289],3,–,–,–,"inhibition at 10 µM ([1]; Homo sapiens, TNF production): 30%"
COc1cc(NC(=O)CCNC(=O)Cn2nc(-c3ccc(F)cc3)c(-c3ccncc3)c2C)cc2ccccc12 [Example B-2298],0.29,–,–,–,IC50 ([1]; TNF production): 4.22 µM
COc1ccccc1CCNC(=O)Cn1nc(-c2ccc(F)cc2)c(-c2ccncc2)c1C [Example B-2315],0.49,–,36.0,–,–
Cc1c(-c2ccncc2)c(-c2ccc(F)cc2)nn1CC(=O)NC1CCc2ccccc21 (stereo not drawn) [Example B-2318],–,–,25.0,73.0,–
COC(=O)[C@H](CCSC)NC(=O)Cn1nc(-c2ccc(F)cc2)c(-c2ccncc2)c1C [Example B-2324],–,–,36.0,58.0,–
Cc1c(-c2ccncc2)c(-c2ccc(F)cc2)nn1CC(=O)NC(C)Cc1c[nH]c2ccccc12 (stereo not drawn) [Example B-2328],–,–,28.0,65.0,–
Cc1c(-c2ccncc2)c(-c2ccc(F)cc2)nn1CC(=O)NC1CCCC1 [Example B-2333],–,–,36.0,58.0,–
COC(=O)[C@H](CSCc1ccccc1)NC(=O)Cn1nc(-c2ccc(F)cc2)c(-c2ccncc2)c1C [Example B-2339],–,–,–,84.0,IC50 ([1]; TNF production): > 10 µM
CCOC(=O)C(Cc1ccccc1)NC(=O)Cn1nc(-c2ccc(F)cc2)c(-c2ccncc2)c1C (stereo not drawn) [Example B-2351],–,–,1.0,77.0,–
CCCCCc1cccc(C(C)NC(=O)Cn2nc(-c3ccc(F)cc3)c(-c3ccncc3)c2C)c1 (stereo not drawn) [Example B-2354],–,–,25.0,65.0,–
CCOC(=O)CC[C@H](NC(=O)Cn1nc(-c2ccc(F)cc2)c(-c2ccncc2)c1C)C(=O)OCC [Example B-2360],–,–,–,45.0,IC50 ([1]; TNF production): > 10 µM
COC(=O)C(C)NC(=O)Cn1nc(-c2ccc(F)cc2)c(-c2ccncc2)c1C (stereo not drawn) [Example B-2363],–,–,1.0,44.0,–
CCN1CCC(N(CC)C(=O)Cn2nc(-c3ccc(F)cc3)c(-c3ccncc3)c2C)C1 (stereo not drawn) [Example B-2369],–,–,–,32.0,IC50 ([1]; TNF production): > 10 µM
